Laboratory results: patent US20150299188A1, “HETEROCYCLIC COMPOUND” (priority 2012, published 2015)

Tested on: FLAP (5-lipoxygenase activating protein)
Test: In vitro binding test: displacement of [3H]-7-chloro-3-(5-((3-fluoropyridin-2-yl)methoxy)-2-methylphenyl)-3,4-dihydroquinazolin-2(1H)-one from Sf9 microsome fractions
Set-up: species or system human and mouse
Conditions: Sf9 microsome fractions expressing FLAP; 100% = radioligand binding with 10 μM sodium 3-(3-(tert-butylsulfanyl)-1-(4-chlorobenzyl)-5-isopropyl-1H-indol-2-yl)-2,2-dimethylpropanoate, 0% = DMSO; test compound concentration not given
Procedure, shortened: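 Sf9 microsomes expressing human or mouse FLAP (2 μg/mL) preincubated with compound 10 min at room temperature, then 120 nM tritiated quinazolinone ligand added for 60 min; buffer 100 mM Tris-HCl pH 7.5 with NaCl, EDTA, DTT, glycerol, Tween20. Bound ligand filtered and counted by scintillation; 10 μM indole propanoate defines 100% inhibition, DMSO 0%.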

## COc1nccc2c1CN(c1cc(OCc3ncccc3F)ccc1C)C(=O)N2 [Example 307, 3-(5-((3-fluoropyridin-2-yl)methoxy)-2-methylphenyl)-5-methoxy-3,4-dihydropyrido[4,3-d]pyrimidin-2(1H)-one]
  inhibitory rate (%): 100%

## COc1cccc2c1CN(c1cc(OCc3ncccc3F)ccc1C)C(=O)N2 [Example 308, 3-(5-((3-fluoropyridin-2-yl)methoxy)-2-methylphenyl)-5-methoxy-3,4-dihydroquinazolin-2(1H)-one]
  inhibitory rate (%): 85%

## Cc1ccc(OCc2c(F)cccc2F)cc1N1Cc2[nH]ncc2NC1=O [Example 309, 6-(5-((2,6-difluorobenzyl)oxy)-2-methylphenyl)-1,4,6,7-tetrahydro-5H-pyrazolo[4,3-d]pyrimidin-5-one]
  inhibitory rate (%): 51%

## Cc1ccc(OCc2ncccc2F)cc1N1Cc2c(cc[nH]c2=O)NC1=O [Example 310, 3-(5-((3-fluoropyridin-2-yl)methoxy)-2-methylphenyl)-4,6-dihydropyrido[4,3-d]pyrimidine-2,5(1H,3H)-dione]
  inhibitory rate (%): 95%

## Cc1ccc(OCc2c(F)cccc2F)cc1N1Cc2cnn(C)c2NC1=O [Example 311, 5-(5-((2,6-difluorobenzyl)oxy)-2-methylphenyl)-1-methyl-1,4,5,7-tetrahydro-6H-pyrazolo[3,4-d]pyrimidin-6-one]
  inhibitory rate (%): 69%

## O=C1Nc2ccccc2CN1c1cc(OCc2ncccc2F)ccc1CNC1CC1 [Example 312, 3-(2-((cyclopropylamino)methyl)-5-((3-fluoropyridin-2-yl)methoxy)phenyl)-3,4-dihydroquinazolin-2(1H)-one]
  inhibitory rate (%): 86%

## O=C1Nc2ccccc2CN1c1cc(OCc2ncccc2F)ccc1CN1CCOCC1 [Example 313, 3-(5-((3-fluoropyridin-2-yl)methoxy)-2-(morpholin-4-ylmethyl)phenyl)-3,4-dihydroquinazolin-2(1H)-one]
  inhibitory rate (%): 64%

## CCCN1CCN(Cc2ccc(OCc3ncccc3F)cc2N2Cc3ccccc3NC2=O)CC1 [Example 314, 3-(5-((3-fluoropyridin-2-yl)methoxy)-2-((4-propylpiperazin-1-yl)methyl)phenyl)-3,4-dihydroquinazolin-2(1H)-one]
  inhibitory rate (%): 58%

## Cc1ccc(OCc2ncccc2F)cc1N1Cc2c(Br)cncc2NC1=O [Example 315, 5-bromo-3-(5-((3-fluoropyridin-2-yl)methoxy)-2-methylphenyl)-3,4-dihydropyrido[3,4-d]pyrimidin-2(1H)-one]
  inhibitory rate (%): 103%

## CC(C)(O)c1ccc2c(c1)NC(=O)N(c1cc(OCc3c(F)cccc3F)ccc1Cc1ccccn1)C2 [Example 316, 3-(5-((2,6-difluorobenzyl)oxy)-2-(pyridin-2-ylmethyl)phenyl)-7-(2-hydroxypropan-2-yl)-3,4-dihydroquinazolin-2(1H)-one]
  inhibitory rate (%): 50%

## O=C1Nc2cc(CO)ccc2CN1c1cc(OCc2c(F)cccc2F)ccc1Cc1ccccn1 [Example 317, 3-(5-((2,6-difluorobenzyl)oxy)-2-(pyridin-2-ylmethyl)phenyl)-7-(hydroxymethyl)-3,4-dihydroquinazolin-2(1H)-one]
  inhibitory rate (%): 54%

## Cc1ccc(OCc2ncccc2F)cc1N1Cc2c(Cl)ncnc2NC1=O [Example 318, 5-chloro-3-(5-((3-fluoropyridin-2-yl)methoxy)-2-methylphenyl)-3,4-dihydropyrimido[4,5-d]pyrimidin-2(1H)-one]
  inhibitory rate (%): 62%

## COc1ncnc2c1CN(c1cc(OCc3ncccc3F)ccc1C)C(=O)N2 [Example 319, 3-(5-((3-fluoropyridin-2-yl)methoxy)-2-methylphenyl)-5-methoxy-3,4-dihydropyrimido[4,5-d]pyrimidin-2(1H)-one]
  inhibitory rate (%): 52%

## Cc1ccc(OCc2ncccc2F)cc1N1Cc2c(ccnc2C2CC2)NC1=O [Example 320, 5-cyclopropyl-3-(5-((3-fluoropyridin-2-yl)methoxy)-2-methylphenyl)-3,4-dihydropyrido[4,3-d]pyrimidin-2(1H)-one]
  inhibitory rate (%): 101%

## Cc1ccc(OCc2ncccc2F)cc1N1Cc2c(ccnc2C#N)NC1=O [Example 321, 3-(5-((3-fluoropyridin-2-yl)methoxy)-2-methylphenyl)-2-oxo-1,2,3,4-tetrahydropyrido[4,3-d]pyrimidine-5-carbonitrile]
  inhibitory rate (%): 90%

## Cc1ccc(OCc2ncccc2F)cc1N1Cc2c(ccnc2C(N)=O)NC1=O [Example 322, 3-(5-((3-fluoropyridin-2-yl)methoxy)-2-methylphenyl)-2-oxo-1,2,3,4-tetrahydropyrido[4,3-d]pyrimidine-5-carboxamide]
  inhibitory rate (%): 97%

## Cc1ccc(OCc2ncccc2F)cc1N1Cc2c(ccnc2C)NC1=O [Example 323, 3-(5-((3-fluoropyridin-2-yl)methoxy)-2-methylphenyl)-5-methyl-3,4-dihydropyrido[4,3-d]pyrimidin-2(1H)-one]
  inhibitory rate (%): 94%

## O=c1[nH]c2ccccc2c(=O)n1-c1cc(OCc2c(F)cccc2F)ccn1 [Example 324, 3-(4-((2,6-difluorobenzyl)oxy)pyridin-2-yl)quinazoline-2,4(1H,3H)-dione]
  inhibitory rate (%): 50%

## O=c1[nH]c2cc[nH]c2c(=O)n1-c1cccc(OCc2c(F)cccc2F)c1 [Example 325, 3-(3-((2,6-difluorobenzyl)oxy)phenyl)-1H-pyrrolo[3,2-d]pyrimidine-2,4(3H,5H)-dione]
  inhibitory rate (%): 65%

## O=c1[nH]c2ccccc2c(=O)n1-c1ccc2c(c1)OC(c1c(F)cccc1F)CC2 (centres unmarked) [Example 326, 3-(2-(2,6-difluorophenyl)-3,4-dihydro-2H-chromen-7-yl)quinazoline-2,4(1H,3H)-dione]
  inhibitory rate (%): 95%

## Cc1cc2c(cc1-n1c(=O)[nH]c3ccccc3c1=O)OC(c1ncccc1F)CC2 (centres unmarked) [Example 327, 3-(2-(3-fluoropyridin-2-yl)-6-methyl-3,4-dihydro-2H-chromen-7-yl)quinazoline-2,4(1H,3H)-dione]
  inhibitory rate (%): 107%

## COCCn1c(=O)n(-c2cc3c(cc2C)CCC(c2ncccc2F)O3)c(=O)c2ccccc21 (centres unmarked) [Example 328, 3-(2-(3-fluoropyridin-2-yl)-6-methyl-3,4-dihydro-2H-chromen-7-yl)-1-(2-methoxyethyl)quinazoline-2,4(1H,3H)-dione]
  inhibitory rate (%): 111%

## Cn1c(=O)n(-c2ccc3c(c2)OC(c2c(F)cccc2F)CC3)c(=O)c2ccccc21 (centres unmarked) [Example 329, 3-(2-(2,6-difluorophenyl)-3,4-dihydro-2H-chromen-7-yl)-1-methylquinazoline-2,4(1H,3H)-dione]
  inhibitory rate (%): 103%

## O=c1[nH]c2cnccc2c(=O)n1-c1cccc(OCc2c(F)cccc2F)c1 [Example 330, 3-(3-((2,6-difluorobenzyl)oxy)phenyl)pyrido[3,4-d]pyrimidine-2,4(1H,3H)-dione]
  inhibitory rate (%): 72%

## Cn1c(=O)n(-c2cccc(OCc3c(F)cccc3F)c2)c(=O)c2ccncc21 [Example 331, 3-(3-((2,6-difluorobenzyl)oxy)phenyl)-1-methylpyrido[3,4-d]pyrimidine-2,4(1H,3H)-dione]
  inhibitory rate (%): 51%

## Cc1ccc(OCc2c(F)cccc2F)cc1-n1c(=O)[nH]c2nc(N3CCOCC3)sc2c1=O [Example 334, 6-(5-((2,6-difluorobenzyl)oxy)-2-methylphenyl)-2-(morpholin-4-yl)[1,3]thiazolo[4,5-d]pyrimidine-5,7(4H,6H)-dione]
  inhibitory rate (%): 93%
